# Assay results reported in patent US12285034B2, “Human and non-human animal use of microbial anaplerotic oil” (HELIAE DEVELOPMENT, LLC, priority 2017, dated 2025).
# Tests used:
# [1] = test system: Aurantiochytrium acetophilum HS399; assay: Cyanocobalamin and propionate deposition, flask (Example 10); assay type: cell-based
# [2] = test system: Aurantiochytrium acetophilum HS399; assay: Alternative promoters of OCFA production (Example 17); details: for capacity to induce the production of OCFAs: flask cultures
# Experimental: Further, it may be beneficial to find alternative promotors to produce OCFA that are less toxic to the model organisms or that are simpler. In this implementation, pentanoate, heptanoate, yeast extract, proteose peptone, methionine, valine and isoleucine are evaluated for their capacity to induce the production of OCFAs. Erlenmeyer flasks can be used and A. acetophilum HS399 can be cultured following the protocols described herein.
# In this implementation, respective flasks can be supplemented with different concentrations of the proposed promoters and the resulting biomass harvested and analyzed for total lipid and fatty acid analyses.
# [3] = test system: Yarrowia lipolytica ATCC18944; assay type: cell-based; details: 192 h, itaconic acid 0.5 / propionate 6 g/L
# Experimental: Culture conditions. In one implementation, Yarrowia lipolytica ATCC18944 can be cultivated in triplicates (n=3) in a medium containing (g/L): glycerol (80), monosodium […]), yeast extract (1), NaCl (12.5), MgSO4 (7), H2O (2.5), KCl (0.5), CaCl2 (0.1), KH2PO4 (0.5), trace metal solution (5 mL) and vitamin solution (1 mL). The trace element solution may contain (g/L): […] The vitamin solution can be filter-sterilized (e.g., using 0.2 μm pore size filter) containing (mg L-1): thiamine (100), biotin (0.5) and cyanocobalamin (0.5) unless otherwise stated. In some implementations cyanocobalamin might be added to or subtracted from the medium formulation to change or impact propionic acid deposition in OCFA. […] In one implementation, a concentration of the cyanocobalamin and/or cobalt in the culture medium can be below 0.4 μM. […] The flasks can be incubated in the dark in an orbital shaker at 180 rpm, 27° C. In this implementation, sodium propionate is fed batch every day according to respective treatments. […] Analyses. Cell dry weights can be obtained by drying samples that are previously vacuum filtrated (e.g., using 0.2 μm pore size filters). Residual propionate is analyzed directly by high performance liquid chromatography (HPLC). Lipids and total fatty acids are analyzed using a direct extraction, transesterification followed by gas chromatography (GC) and detection by flame ionization (FID). The different fatty acids are identified and quantified using appropriate internal and external standards. Propionic acid deposition rate.
# [4] = test system: Aurantiochytrium acetophilum HS399; assay type: cell-based; details: acetic acid titrant (control), pH 7
# Experimental: In this implementation, initially (24 h incubation), the culture pH may not be controlled, and the pH of the respective treatments can drift from 7.5 to 8. After 24 h incubation, the desired pH set point of each treatment can be set using the respective organic acids. […] The cultures are aerated at 1.4 vvm and maintained at 27° C. under axenic conditions. […] This medium also contains a trace element solution (5 ml/L) and a vitamin solution (1 ml/L). The trace element solution can contain (g/L): […] […] Residual glucose is analyzed from culture supernatant (5000 g; 5 min) using a colorimetric method based on glucose […] activity. Residual acetate and propionate are analyzed by HPLC using external standard.
# [5] = test system: Aurantiochytrium acetophilum HS399; assay: Cyanocobalamin impact on glucose metabolism (Examples 16, 20); assay type: cell-based; details: cyanocobalamin 0.37 μM vs 0, propionic acid 3 and 9 g/L
# Experimental: As described above, OCFAs anaplerosis can merely take place in the presence of cyanocobalamin. In this implementation, the cell dry weight and residual propionate can be monitored, and residual glucose in the media can be analyzed.
# (§1) Aurantiochytrium acetophilum HS399 was cultivated in the presence and absence of cyanocobalamin. […] The vitamin solution contained (mg/L): thiamine (100) and biotin (0.5). All culture materials were autoclaved (121° C., 15 min) and media was filter sterilized before use. […] Biomass for lipid analysis was centrifuged and washed using purified water. The washed biomass was freeze dried.
# As described above, OCFAs anaplerosis can merely take place in the presence of cyanocobalamin. In this implementation, the cell dry weight and residual propionate can be monitored, and residual glucose in the media can be analyzed. […] Cell dry weight reached the same titers independently of the cyanocobalamin concentration.
# [6] = test system: Aurantiochytrium acetophilum HS399; assay: Cyanocobalamin impact on propionate metabolism (Example 21); assay type: cell-based
# Experimental: as §1, with “cyanocobalamin. […] The trace element solution contained (g/L):” for “cyanocobalamin.”, “dried. […] As described above, OCFAs anaplerosis can merely take place in the presence of cyanocobalamin. In this implementation, the cell dry weight and residual propionate can be monitored, and residual glucose in the media can be analyzed.” for “dried.”
# [7] = cyanocobalamin 370 nM vs 0, propionic acid 16 g/L
compound,measurement,setting,value
"CSCC[C@H](N)C(=O)O [methionine, reference compound]",effect of supplementation on growth,"[1]; 0.5 g/L, with or without cyanocobalamin 0.00037 μM",does not appear to have an impact in growth
"CCCCCCC(=O)O [heptanoate, heptanoic acid]",toxicity (growth inhibition),[2]; FIG. 53,higher than that of propionic acid
CC(C)[C@H](N)C(=O)O [valine],capacity to induce the production of OCFAs,[2],identified as a nitrogen and OCFAs source
"C=C(CC(=O)O)C(=O)O [Itaconic acid, itaconic acid, reference compound]",Cell dry weight,[3],7.9 ± 1.1 g/L
same,Consumed propionate,[3],5.0 ± 1.6 g/L
same,Odd chain fatty acids,[3],1.1 ± 0.6 % DW
same,Propionic acid deposition,[3],0.5 ± 0.2%
CC[C@H](C)[C@H](N)C(=O)O [isoleucine],capacity to induce the production of OCFAs,[2],identified as a nitrogen and OCFAs source
"CC(=O)O [Acetic acid, acetic acid, reference compound]",Total Fatty Acid,[4],71.9 ± 5.2 % CDW
same,Total Lipids,[4],89.5 ± 0.5 % CDW
cyanocobalamin,glucose uptake rate,[5],significantly (P<0.01 t-student) lower
same,growth in the first 48 hrs,[5],may not be impacted
same,effect of cyanocobalamin deprived media on growth,[1]; over 10 generations,substantially no impact on growth
same,effect on cell dry weight,[6]; [7],positive difference in cell dry weight
same,glucose uptake rate,[6]; [7],significantly (P<0.01 t-student) lower
same,residual propionate in cultures deficient in cyanocobalamin,"[6]; propionic acid 16 g/L, FIG. 58",chronical higher residual propionate
